# Laboratory results as given in US9649268B2, “Glucuronolactone derivatives as self-tanning substances” (MERCK PATENT GMBH, priority 2011, dated 2017).
# Legend:
# [1] = Colouring test on merino wool balls; conditions: 1 mmol in 100 ml buffer (pH 7)/ethylene glycol 6/94, RT, 24 h, then washed and dried
# Experimental: 1 mmol of each of DHA and the glucuronolactone derivatives are weighed out into a 100 ml conical flask with ground-glass joint:
# (2) Glucuronolactone: 176 mg
# (3) Compound (Ia): 216 mg
# (4) Compound (Ic): 264 mg
# A merino wool ball with the size of a grape and a magnetic stirrer are then added to each conical flask.
# A mixture of 6% by vol. of buffer (ph7) and 94% by vol. of ethylene glycol is then prepared, 100 ml of this mixture are added to each conical flask and stirred at RT for 24 h.
# After 24 h, the wool balls are washed firstly with water, then with warm washing-powder solution and again with water and dried.
# This colouring result can also be applied to hair, since merino wool, like hair, is built up from proteins (keratins) and the outermost layer is in each case the cuticle.
# [2] = Liquid skin model (reaction with L-lysine, L*a*b* values); conditions: after 24 hours; for L* / a* / b*: 1 mmol compound + 1 mmol L-lysine, phosphate-buffered water (pH=7)/ethylene glycol
# Experimental: The mixture is subsequently made up to the mark with a mixture of 6 ml of phosphate-buffered water (pH=7) and 94 ml of ethylene glycol. The reaction is observed with vigorous stirring, and the L*a*b* values are determined after 24 hours.
# [3] = Stability/odour of test formulations on storage; format: physicochemical; conditions: formulation with 5% active compound (mixture: 5% DHA + 1% compound Ia), stored at 40° C. for 8 weeks
# Experimental: In order to compare the odour and stability of glucuronolactone, glucuronolactone acetonide of the formula (Ia), DHA and a combination in a formulation, 5 formulations are prepared: one without active compound as placebo, one with 5% of glucuronolactone, one with 5% of compound (Ia), one with 5% of DHA and one with 5% of DHA+1% of compound (Ia) (denoted by “active compound” in the recipe).
# The following recipe is used:
# Sources of Supply: (1) Sasol Germany GmbH, (2) Cognis GmbH, (3) Hansen&Rosenthal KG, (4) Merck KGaA/Rona®, (5) Alfa Aesar Preparation of the Formulations: […]
# Heat phase A, heat phase B, prepare phase C on a magnetic stirrer (first introduce water, then add thickener), then homogenise phase C with phase B using an Ultra-Turrax and at the same time slowly add phase A. Subsequently add phase D and likewise homogenise well.
# In the case of the 5th cream (with DHA and glucuronolactone acetonide), adjust the water proportion correspondingly.
# [4] = system: histological explants from the lower abdomen tissue of a person; test: Ex-vivo study on skin explants, chromametric measurement (ITA); set-up: species or system human; conditions: for Day 5 (ITA value): 30 μl on 5 consecutive days, 2 h
# Experimental: 24 histological explants having an average diameter of 10 mm are prepared from the lower abdomen tissue of a person. The pieces of tissue are kept in BEM medium (BIO-EC's explants medium) at 37° C. in a humid atmosphere comprising 5% of CO2.
# The tissue is divided into 8 batches of 3 explants each:
# 30 μl of the substance solutions are applied on 5 consecutive days using a round filter paper and left to act for 2 h. On days 0, 5 and 8, tissue sections with a thickness of 5 μm are prepared from the explants. These sections are investigated morphologically and measured chromametrically.
# The colour measurements are carried out using a Minolta CR-300 Chroma-meter, and the L, a and b values are read off correspondingly on the instrument.
# Principle of the Chromametric Measurement:
# The following parameters are set:
# In 1931, a test series was carried out by the CIE (Commision Internationale de L'Eclairage), where the “2-degree standard observer” was defined. A colour area is present here which is viewed at a viewing angle of 2 degrees. This viewing angle is used as standard in the chromametric measurement. • Irradiation source D65, corresponding to daylight • Region of the measurement: 3 mm • Parameters used: L* a* b*
# The sample is placed on the bearing rail with the epidermis facing downwards. The irradiation is carried out from the underside through the area indicated (3 mm).
# In the colorimetric determinations <<L a b>>, the L value determines the contrast of the skin. If the L value drops, the skin appears darker.
# ITA is defined as arctan g[(L−50)/b]. If the ITA index increases, the skin appears paler.
odour of the formulation [3],melting point,Compound,colouration of wool samples compared with the untreated sample [1],L* [2],a* [2],b* [2],L values compared with erythrulose (darker colour) [2],Day 5 (ITA value) ([4]; 1% solution),Day 5 (ITA value) ([4]; 4% solution),colour effect ([4]; identical concentration in the test formulation)
produce no odour,,"CC1(C)OC2OC3C(O)C(=O)OC3C2O1 (stereo not shown) [Compound Ia, glucuronolactone acetonide]",yellow colouration,82.6,29.4,103.7,lower L values than erythrulose,−2%,−5%,comparable to erythrulose
,,COC1OC2C(O)C(=O)OC2C1O (stereo not shown) [Compound Ib],,81.1,30.8,103.8,lower L values than erythrulose,,,
,,"O=C1OC2C3OC(c4ccccc4)OC3OC2C1O [Compound Ic, 1,2-O—(R,S)-(Benzylidene)-α-D-glucofuranurono-6,3-lactone]",yellow colouration,68.0,55.2,109.6,lower L values than erythrulose,,,
,,"COc1ccc(C2OC3OC4C(O)C(=O)OC4C3O2)cc1 [Compound Ie, 1,2-O—(R,S)-(4-Methoxybenzylidene)-α-D-glucofuranurono-6,3-lactone]",,76.4,39.1,106.7,lower L values than erythrulose,,,
,82 °C,"COc1cc(C2OC3OC4C(O)C(=O)OC4C3O2)ccc1O [Compound Ig, 1,2-O—(R,S)-(4-hydroxy-3-methoxybenzylidene)-α-D-glucofuranurono-6,3-lactone]",,80.9,32.0,100.0,lower L values than erythrulose,,,
developed the typical DHA odour,,"O=C(CO)CO [DHA, 1,3-dihydroxyacetone, reference compound]",no colouration,46.7,27.2,69.4,,−15%,,
,,"O=C(CO)[C@H](O)CO [Erythrulose, reference compound]",,92.6,4.8,35.8,,,−5%,
produce no odour,,O=C[C@H](O)[C@H]1OC(=O)[C@@H](O)[C@H]1O [Glucuronolactone],no colouration,96.1,4.3,45.9,,−3%,,
